# ChEMBL document CHEMBL1150487, “Cyanoguanidine bioisosteres in potassium channel openers: Evaluation of 3,4-disubstituted-1,2,5-thiadiazole-1-oxides” (Bioorg Med Chem Lett, 1996)
# Organism: Rattus norvegicus
# Assay: Membrane potential change (fluorescence-based in vitro assay using DIBAC4 as indicator) in A-10 smooth muscle cell, to estimate potassium channel opening activity at 1 uM
# Type: functional
row,SMILES,Change [%]
1,[O-][s+]1nc(NCCCCc2ccccc2)c(Nc2cc(Cl)cc(Cl)c2)n1 (stereo unspecified),-6.18
2,[O-][s+]1nc(NCCc2ccccc2)c(Nc2cc(Cl)cc(Cl)c2)n1 (stereo unspecified),-1.29
3,CCCNc1n[s+]([O-])nc1Nc1cc(Cl)cc(Cl)c1 (stereo unspecified),5.85
4,CC(C)Nc1n[s+]([O-])nc1Nc1cc(Cl)cc(Cl)c1 (stereo unspecified),-5.37
5,CCC(C)Nc1n[s+]([O-])nc1Nc1cc(Cl)cc(Cl)c1 (stereo unspecified),1.42
6,[O-][s+]1nc(Nc2cc(Cl)cc(Cl)c2)c(NC2CCCCC2)n1 (stereo unspecified),-2.39
7,[O-][s+]1nc(NCc2ccccc2)c(Nc2cc(Cl)cc(Cl)c2)n1 (stereo unspecified),-0.91
8,CCCCCNc1n[s+]([O-])nc1Nc1cc(Cl)cc(Cl)c1 (stereo unspecified),-10.6
9,Nc1n[s+]([O-])nc1Nc1cc(Cl)cc(Cl)c1 (stereo unspecified),-4.81
10,CC(C)(C)CNc1n[s+]([O-])nc1Nc1cc(Cl)cc(Cl)c1 (stereo unspecified),5.58
11,CCCCCNc1n[s+]([O-])nc1Nc1ccccc1 (stereo unspecified),-7.68
12,[O-][s+]1nc(Nc2cc(Cl)cc(Cl)c2)c(NC2CC2)n1 (stereo unspecified),-1.1
13,[O-][s+]1nc(NCCCc2ccccc2)c(Nc2cc(Cl)cc(Cl)c2)n1 (stereo unspecified),-19.7
14,CNc1n[s+]([O-])nc1Nc1cc(Cl)cc(Cl)c1 (stereo unspecified),-25.1
15,CC(N/C(=N\C#N)Nc1ccncc1)C(C)(C)C (stereo unspecified),-45.6
16,[O-][s+]1nc(Nc2cc(Cl)cc(Cl)c2)c(NC2CCCC2)n1 (stereo unspecified),-1.36
17,CCCNc1n[s+]([O-])nc1Nc1ccccc1 (stereo unspecified),-4.86
18,CCCCNc1n[s+]([O-])nc1Nc1cc(Cl)cc(Cl)c1 (stereo unspecified),-10.3
19,CC(C)CCNc1n[s+]([O-])nc1Nc1cc(Cl)cc(Cl)c1 (stereo unspecified),-12
20,CC(C)CNc1n[s+]([O-])nc1Nc1cc(Cl)cc(Cl)c1 (stereo unspecified),-3.59
21,[O-][s+]1nc(Nc2cc(Cl)cc(Cl)c2)c(NC2CCC2)n1 (stereo unspecified),-4.23

# Organism: Rattus norvegicus
# Assay: Membrane potential change (fluorescence-based in vitro assay using DIBAC4 as indicator) in A-10 smooth muscle cell, to estimate potassium channel opening activity at 10 uM
# Type: functional
row,SMILES,Change [%]
1,[O-][s+]1nc(NCCCCc2ccccc2)c(Nc2cc(Cl)cc(Cl)c2)n1 (stereo unspecified),4.02
2,CCCNc1n[s+]([O-])nc1Nc1cc(Cl)cc(Cl)c1 (stereo unspecified),-11.1
3,CC(C)Nc1n[s+]([O-])nc1Nc1cc(Cl)cc(Cl)c1 (stereo unspecified),-9.36
4,CCC(C)Nc1n[s+]([O-])nc1Nc1cc(Cl)cc(Cl)c1 (stereo unspecified),-19
5,[O-][s+]1nc(Nc2cc(Cl)cc(Cl)c2)c(NC2CCCCC2)n1 (stereo unspecified),-17.7
6,[O-][s+]1nc(NCc2ccccc2)c(Nc2cc(Cl)cc(Cl)c2)n1 (stereo unspecified),0.84
7,CCCCCNc1n[s+]([O-])nc1Nc1cc(Cl)cc(Cl)c1 (stereo unspecified),-26.3
8,Nc1n[s+]([O-])nc1Nc1cc(Cl)cc(Cl)c1 (stereo unspecified),-4.58
9,CC(C)(C)CNc1n[s+]([O-])nc1Nc1cc(Cl)cc(Cl)c1 (stereo unspecified),1.84
10,CCCCCNc1n[s+]([O-])nc1Nc1ccccc1 (stereo unspecified),-5.23
11,[O-][s+]1nc(Nc2cc(Cl)cc(Cl)c2)c(NC2CC2)n1 (stereo unspecified),-3.96
12,[O-][s+]1nc(NCCCc2ccccc2)c(Nc2cc(Cl)cc(Cl)c2)n1 (stereo unspecified),14.1
13,CNc1n[s+]([O-])nc1Nc1cc(Cl)cc(Cl)c1 (stereo unspecified),-33.6
14,CC(N/C(=N\C#N)Nc1ccncc1)C(C)(C)C (stereo unspecified),-57.4
15,[O-][s+]1nc(Nc2cc(Cl)cc(Cl)c2)c(NC2CCCC2)n1 (stereo unspecified),-4.17
16,CCCNc1n[s+]([O-])nc1Nc1ccccc1 (stereo unspecified),-1.05
17,CCCCNc1n[s+]([O-])nc1Nc1cc(Cl)cc(Cl)c1 (stereo unspecified),-44.7
18,CC(C)CCNc1n[s+]([O-])nc1Nc1cc(Cl)cc(Cl)c1 (stereo unspecified),-45.5
19,CC(C)CNc1n[s+]([O-])nc1Nc1cc(Cl)cc(Cl)c1 (stereo unspecified),10.8
20,[O-][s+]1nc(Nc2cc(Cl)cc(Cl)c2)c(NC2CCC2)n1 (stereo unspecified),-21.8

# Organism: Rattus norvegicus
# Assay: Membrane potential change (fluorescence-based in vitro assay using DIBAC4 as indicator) in A-10 smooth muscle cell, to estimate potassium channel opening activity at 0.1 uM
# Type: functional
row,SMILES,Change [%]
1,[O-][s+]1nc(NCCCCc2ccccc2)c(Nc2cc(Cl)cc(Cl)c2)n1 (stereo unspecified),-7.2
2,[O-][s+]1nc(NCCc2ccccc2)c(Nc2cc(Cl)cc(Cl)c2)n1 (stereo unspecified),-1.01
3,CCCNc1n[s+]([O-])nc1Nc1cc(Cl)cc(Cl)c1 (stereo unspecified),8.06
4,CC(C)Nc1n[s+]([O-])nc1Nc1cc(Cl)cc(Cl)c1 (stereo unspecified),2.12
5,CCC(C)Nc1n[s+]([O-])nc1Nc1cc(Cl)cc(Cl)c1 (stereo unspecified),-0.43
6,[O-][s+]1nc(Nc2cc(Cl)cc(Cl)c2)c(NC2CCCCC2)n1 (stereo unspecified),2.05
7,[O-][s+]1nc(NCc2ccccc2)c(Nc2cc(Cl)cc(Cl)c2)n1 (stereo unspecified),7.83
8,CCCCCNc1n[s+]([O-])nc1Nc1cc(Cl)cc(Cl)c1 (stereo unspecified),8.48
9,Nc1n[s+]([O-])nc1Nc1cc(Cl)cc(Cl)c1 (stereo unspecified),10.2
10,CC(C)(C)CNc1n[s+]([O-])nc1Nc1cc(Cl)cc(Cl)c1 (stereo unspecified),1.77
11,CCCCCNc1n[s+]([O-])nc1Nc1ccccc1 (stereo unspecified),-3.76
12,[O-][s+]1nc(Nc2cc(Cl)cc(Cl)c2)c(NC2CC2)n1 (stereo unspecified),0.95
13,CNc1n[s+]([O-])nc1Nc1cc(Cl)cc(Cl)c1 (stereo unspecified),-16
14,CC(N/C(=N\C#N)Nc1ccncc1)C(C)(C)C (stereo unspecified),-5.89
15,[O-][s+]1nc(Nc2cc(Cl)cc(Cl)c2)c(NC2CCCC2)n1 (stereo unspecified),-5.82
16,CCCNc1n[s+]([O-])nc1Nc1ccccc1 (stereo unspecified),-3.75
17,CCCCNc1n[s+]([O-])nc1Nc1cc(Cl)cc(Cl)c1 (stereo unspecified),1.29
18,CC(C)CCNc1n[s+]([O-])nc1Nc1cc(Cl)cc(Cl)c1 (stereo unspecified),10.7
19,CC(C)CNc1n[s+]([O-])nc1Nc1cc(Cl)cc(Cl)c1 (stereo unspecified),-1.32
20,[O-][s+]1nc(Nc2cc(Cl)cc(Cl)c2)c(NC2CCC2)n1 (stereo unspecified),-5.89
